From ChEMBL document CHEMBL1201862, “PubChem BioAssay data set” (2004)
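Compound exposure: 48 hours, 5 concentrations, 96-well plates. The concentration for 50% growth inhibition is given as GI50.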 Activity calls are given as the source filed them. Rule as the data show it: active = GI50 up to about 1.1 µM and inactive = higher.

Assays:
Assay in all cases: DTP human tumour cell line panel, 48 h
HT-29 = test system: HT-29
SF-295 = test system: SF-295
NCI-H226 = test system: NCI-H226
SW-620 = test system: SW-620
OVCAR-4 = test system: OVCAR-4
SNB-19 = test system: SNB-19
A549 = test system: A549
KM12 = test system: KM12
M14 = test system: M14
LOX IMVI = test system: LOX IMVI
RPMI-8226 = test system: RPMI-8226
SR = test system: SR
TK-10 = test system: TK-10
HCT-15 = test system: HCT-15
CCRF-CEM = test system: CCRF-CEM
NCI-H23 = test system: NCI-H23
EKVX = test system: EKVX
SK-MEL-28 = test system: SK-MEL-28
PC-3 = test system: PC-3

| Structure (SMILES) | GI50 (HT-29) | GI50 (SF-295) | GI50 (NCI-H226) | GI50 (SW-620) | GI50 (OVCAR-4) | GI50 (SNB-19) | GI50 (A549) | GI50 (KM12) | GI50 (M14) | GI50 (LOX IMVI) | GI50 (RPMI-8226) | GI50 (SR) | GI50 (TK-10) | GI50 (HCT-15) | GI50 (CCRF-CEM) | GI50 (NCI-H23) | GI50 (EKVX) | GI50 (SK-MEL-28) | GI50 (PC-3) |
| --- | --- | --- | --- | --- | --- | --- | --- | --- | --- | --- | --- | --- | --- | --- | --- | --- | --- | --- | --- |
| COC(=O)CCC(NC(=S)N/N=C(\C)c1cnc2ccccc2n1)C(=O)OC (stereo not given) | 14.2 µM (inactive) | 49.8 µM (inactive) | 41.8 µM (inactive) | 20.8 µM (inactive) | 25.9 µM (inactive) | > 100 µM (inactive) | 34.8 µM (inactive) | 26 µM (inactive) | 30.8 µM (inactive) | 23.2 µM (inactive) | 11.1 µM (inactive) | 15.1 µM (inactive) | > 100 µM (inactive) | 35.1 µM | 3.29 µM (inactive) | 58.3 µM (inactive) | 12.6 µM (inactive) | 40.9 µM (inactive) |  |
| Cc1ccc(Oc2ccc(C)cc2N)cc1 | 52.5 µM (inactive) | 96.4 µM (inactive) | 48.6 µM (inactive) | > 100 µM (inactive) | 68.9 µM (inactive) | > 100 µM (inactive) | > 100 µM (inactive) | > 100 µM (inactive) | > 100 µM (inactive) | > 100 µM (inactive) | 97.9 µM (inactive) | 57.9 µM (inactive) | > 100 µM (inactive) | 48.5 µM | 41.6 µM (inactive) | 94.4 µM (inactive) | 71 µM (inactive) | > 100 µM (inactive) |  |
| COC(=O)C(=O)C(C(C)=O)C(=O)NCc1ccccc1 (stereo not given) | > 100 µM (inactive) | > 100 µM (inactive) | > 100 µM (inactive) | 5.06 µM (inactive) | > 100 µM (inactive) | > 100 µM (inactive) | > 100 µM (inactive) | > 100 µM (inactive) | > 100 µM (inactive) | 50.1 µM (inactive) | > 100 µM (inactive) | > 100 µM (inactive) | > 100 µM (inactive) | > 100 µM | 83.2 µM (inactive) | > 100 µM (inactive) | > 100 µM (inactive) | > 100 µM (inactive) |  |
| O=C(Cc1ccccc1)N/N=C(\C1=Nc2ccc([N+](=O)[O-])cc2NC1O)C(O)c1ccc([N+](=O)[O-])cc1 (stereo not given) | > 100 µM (inactive) | 53.1 µM (inactive) | > 100 µM (inactive) | 80 µM (inactive) | > 10 µM (inactive) | > 100 µM (inactive) | > 100 µM (inactive) |  | 30.8 µM (inactive) | 25.8 µM (inactive) | 44.4 µM (inactive) | > 100 µM (inactive) | > 100 µM (inactive) | > 100 µM | 13.8 µM (inactive) | > 100 µM (inactive) | > 100 µM (inactive) |  |  |
| CCCC[S+]([O-])CCC(N)C(=O)O (stereo not given) | > 100 µM (inactive) | > 100 µM (inactive) | > 100 µM (inactive) | > 100 µM (inactive) | > 100 µM (inactive) | > 100 µM (inactive) | > 100 µM (inactive) | > 100 µM (inactive) | > 100 µM (inactive) |  |  | > 100 µM (inactive) | > 100 µM (inactive) | > 100 µM | > 100 µM (inactive) | > 100 µM (inactive) | > 100 µM (inactive) | > 100 µM (inactive) | > 100 µM (inactive) |
| COc1ccc(/C=C\c2cc(OC)c3c(c2)OCO3)c(O)c1O | 20.7 µM (inactive) | 8.3 µM (inactive) | 16.1 µM (inactive) | 8.3 µM (inactive) | 4.52 µM (inactive) | 4.74 µM (inactive) | 9.04 µM (inactive) | 5.62 µM (inactive) | 3.56 µM (inactive) | 4.53 µM (inactive) | 2.56 µM (inactive) | 3.78 µM (inactive) | 24.9 µM (inactive) | 11 µM | 2.98 µM (inactive) | 4.98 µM (inactive) | 11.7 µM (inactive) | 5.65 µM (inactive) |  |
